Results taken from patent US6589755B1, “Assay for quantifying arthritic conditions” (Novartis AG, priority 1996, dated 2003).

Tested on: LMW-COMP fragment
Assay: LMW-COMP fragments in synovial fluid of treated arthritis patients
Format: in vivo, human
Settings: strong anti-arthritic compound
Method: Twenty microliters of human synovial fluids were mixed 1:1 with SDS-PAGE loading buffer (NOVEX, San Diego, Calif.) containing 10% mercaptoethanol. The samples were boiled for 4 min. and […] applied per lane on a 14% or a 4-12% gradient SDS-PAGE Tris-Gly gel (Novex, Calif.). A separate set of these samples was also prepared for analysis under non-reducing conditions. Molecular weight markers were used to localize the molecular weight of unknowns. After electrophoresis, the samples were electrophoretically transferred onto a nitro-cellulose paper. The paper was treated with 2% bovine serum albumin (BSA) in 10 mM sodium phosphate, 0.15 M NaCl at […] (PBS) for 18 hours at 4° C.
The nitrocelluose paper was rinsed with PBS (10 mM sodium phosphate, 0.15 M NaCl at pH 7.2). […] The bound antibody was then detected using ECL or ECF substrate (Amersham Co.). The fragments were quantified using a Molecular Dynamics densitometer (Sunnyvale, Calif.). […]
A 96-well microtiter plate was coated with 0.1 ml/well of 50 ng/ml of antigen (synthetic peptide H741 without the N-terminal cysteine) in PBS for 48 to 72 h at 4° C. […] After 1 h at RT, the plate was washed 3-times with the ELISA wash buffer and the bound antibody detected by adding 100 μl/well of p-nitrophenyl phosphate substrate solution (Sigma, St. Louis, Mo.) and measuring optical density (OD) at 405 nm. […]

SMILES	LMW-COMP fragment produced under treatment
CN(Cc1cnc2nc(N)nc(N)c2n1)c1ccc(C(=O)N[C@@H](CCC(=O)O)C(=O)O)cc1 [methotrexate]	less
CN1C(C(=O)Nc2ccccn2)=C(O)c2ccccc2S1(=O)=O [piroxicam]	less
